# Data taken from patent publication US20100144704A1, “Method of reducing amyloid-beta peptide levels using a bisdioxopiperazine” (priority 2006, published 2010).
# Several values for one entry are separate records, joined by “and”; a condition that tells them apart may be missing. Equal entries are not always repeated.
# Assays:
# [1] = tested on: APP; assay: APP Western blot in SHSY-5Y cell culture; type: cell-based, human; conditions: for APP, percent control levels / APP, % control levels: 16 h; for APP, % control levels: FIG. 5 study
# Description: (§1) Cell Culture. The human neuroblastoma cell line, SHSY-5Y, was obtained from the American Type Culture Collection, culture medium was from Mediatech, Inc. (Herndon, Va.) and FCS from HyClone (Logan, Utah). Drug Treatment. […] Cells were allowed to grow in complete media (10% FCS, 2 mM glutamine in DMEM) for 2 days to reach 70% confluence. Thereafter, spent media was removed and replaced with fresh media (2 mL DMEM) containing 0 to 100 μM of freshly prepared compounds (clioquinol, razoxane and dexrazoxane. Cells were incubated at 37° C., 5% CO2 for 16 h. APP Western Blot and cell viability. Fifteen μg of protein from each sample was mixed with Laemmli buffer, boiled for 5 min at 100° C., and loaded onto a 10% SDS PAGE gel (Novex, San Diego, Calif.). […] The blots were incubated in secondary antibody, anti-mouse IgG—conjugated to horseradish peroxidase, for 30 min. Thereafter, samples were detected by chemiluminescence. Cell viability was assessed by a sensitive MTT assay. Values were expressed as the mean of between four and six independent assays and were statistically compared to control values. (See FIGS. 3-5).
# [2] = tested on: SHSY-5Y human neuronal cells; assay: Cellular toxicity / cell viability by MTT assay; type: cell-based
# Description: as §1
# [3] = cited from earlier work
# [4] = razoxane compared to dexrazoxane
# Description: The pharmacokinetics of razoxane compared to those of dexrazoxane.
# [5] = tested on: Aβ1-40 peptide; assay: Brain Aβ1-40 by sandwich ELISA in double transgenic mice after 21 day razoxane treatment; type: in vivo; conditions: for Average Conc, Aβ1-40: group average; for Conc, Aβ1-40: individual mouse cerebral cortex sample
# Description: (§2) Double transgenic male mice (APP Swedish mutation+PS1 mutation) express human amyloid precursor protein (APP) and amyloid-β peptide (Aβ) within their brain and form amyloid depositions from 4 months onward. Razoxane (ICRF 159) was administered by intraperitoneal (i.p.) injection once daily for 21 consecutive days to a group of such mice, 5 to 6 months of age and approximately 22 to 28 g in weight. […] Within three hours of the final razoxane/vehicle administration, animals were killed, their brain exposed and a 50-80 mg sample of cerebral cortex collected and frozen at […].
# [6] = tested on: Aβ1-42 peptide; assay: Brain Aβ1-42 by sandwich ELISA in double transgenic mice after 21 day razoxane treatment; type: in vivo; conditions: for Average Conc, Aβ1-42: group average; for Conc, Aβ1-42: individual mouse cerebral cortex sample
# Description: as §2
# [7] = cited from earlier work; remark: listed apart in the source
# [8] = in vivo; cited from earlier work
# [9] = 30 mg/kg once daily x 21 days, male 5 month old transgenic mice
# [10] = razoxane 20 mg/kg i.p. once daily x 21 days
# [11] = razoxane 30 mg/kg i.p. once daily x 21 days
structure (smiles),measurement,setting,value
"CC(CN1CC(=O)NC(=O)C1)N1CC(=O)NC(=O)C1 (racemic) [Razoxane, 1,2-bis(3,5-dioxopiperazin-1-yl)-propane]","APP, percent control levels","[1]; 0.5 μM, FIG. 4",81%
same,"APP, % control levels",[1]; 0.5 μM,75%
same,"APP, percent control levels","[1]; 2 μM, FIG. 4",60%
same,"APP, percent control levels","[1]; 10 μM, FIG. 4",53%
same,"APP, % control levels",[1]; 10 μM,42%
same,Cellular toxicity against SHSY-5Y cells,"[2]; concentrations up to 100 μM, 16 h, FIG. 3",well tolerated and without toxicity
same,Aqueous solubility (in words),[3],relatively low aqueous solubility
same,Elimination from the body,[4],slower elimination
same,Reduction of brain Aβ1-40 compared to the control group,[5]; [9],46%
same,"Average Conc, Aβ1-40",[5]; [10],375 pM
same,"Conc, Aβ1-40",[5]; [10],316.435 pM and 386.757 pM and 378.84 pM and 406.557 pM and 290.284 pM and 468.154 pM
same,"Average Conc, Aβ1-40",[5]; [11],213 pM
same,"Conc, Aβ1-40",[5]; [11],162.992 pM and 310.189 pM and 295.464 pM and 129.452 pM and 134.783 pM and 244.537 pM
same,Reduction of brain Aβ1-42 compared to the control group,[6]; [9],29%
same,"Average Conc, Aβ1-42",[6]; [10],564 pM
same,"Conc, Aβ1-42",[6]; [10],489 pM and 545 pM and 533 pM and 562 pM and 553 pM and 701 pM
same,"Average Conc, Aβ1-42",[6]; [11],326 pM
same,"Conc, Aβ1-42",[6]; [11],365 pM and 504 pM and 471 pM and 216 pM and 27.2 pM and 370 pM
same,Plasma half-life,[7]; humans,about 3.5 hours
same,Oral bioavailability,"[7]; in vivo, po",orally bioavailable
same,Tolerance in humans,"[7]; oral dose of 125 mg, twice a day for five days each week for up to two years",relatively well tolerated
same,Crossing of the blood/brain barrier,[8],cross the blood/brain barrier
"CC(CN1CC(=O)NC(=O)C1)N1CC(=O)NC(=O)C1 (single isomer, unassigned; (+)) [Dexrazoxane, (+)-1,2-Bis(3,5-dioxopiperazin-1-yl)propane]","APP, % control levels",[1]; 0.5 μM,87%
same,"APP, % control levels",[1]; 10 μM,59%
same,Aqueous solubility (in words),[3],more soluble
same,Elimination from the body,[4],eliminated more rapidly
Oc1c(I)cc(Cl)c2cccnc12 [Clioquinol],"APP, percent control levels","[1]; 0.5 μM, FIG. 4",108%
same,"APP, percent control levels","[1]; 2 μM, FIG. 4",116%
same,"APP, percent control levels","[1]; 10 μM, FIG. 4",82%
same,Effect at lowering APP (in words),[1]; FIG. 4,without affect
same,Cell viability,"[2]; 10 μM, associated with the 18% APP decline, FIG. 4",loss of cell viability
